Earlier results, collected in PubChem BioAssay AID1259409 (Chemical Carcinogenesis Research Information System (CCRIS), 2018).

Tested on: rodent chemically induced tumor inhibition, incidence and multiplicity
Test: CCRIS tumor inhibitor studies
Settings: Dose [Inhibitor]: 0, Route [Inhibitor]: ORAL, Species: RAT, Promoter: NONE USED

For `C[C@]12CC[C@H](O)CC1=CC[C@@H]1[C@@H]2CC[C@]2(C)C(=O)CC[C@@H]12`, the “tumour outcome (control, treated, inhibition, significance)” value (Carcinogen: DIETHYLNITROSAMINE, 55-18-5, N-METHYL-N-NITROSOUREA, 684-93-5, N-BUTYL-N-(4-HYDROXYBUTYL)NITROSAMINE, 3817-11-6, 1,2-DIM, Carcinogen: DIETHYLNITROSAMINE, 55-18-5, N-METHYL-N-NITROSOUREA, 684-93-5, N-BUTYL-N-(4-HYDROXYBUTYL)NITROSAMINE, 3817-11-6, 1,2-DIM, 0.3% IND DIET FOR 23 WK BEGINNING 1 WK POST CARCINOGEN TREATMENT (STUDY DURATION: 28 WK), Strain/Sex: F344/MALE, Target Tissue: Type of Lesion: URINARY BLADDER: PAPILLOMA, Dose [Carcinogen]: 100 MG/KG BW DEN ONCE, 20 MG/KG BW MNU ONCE ON DAYS 6,9, AND 12, 0.05% BBN IN DRINKING WATER FOR FIRST TWO WK, 40 MG/KG, Dose [Carcinogen]: 100 MG/KG BW DEN ONCE, 20 MG/KG BW MNU ONCE ON DAYS 6,9, AND 12, 0.05% BBN IN DRINKING WATER FOR FIRST TWO WK, 40 MG/KG) is listed as 2/20 (10%), 1/20 (5%), 50%, not significant, the outcome (Carcinogen: DIETHYLNITROSAMINE, 55-18-5, N-METHYL-N-NITROSOUREA, 684-93-5, N-BUTYLY-N-(4-HYDROXYBUTYL)NITROSAMINE, 3817-11-6, 1,2-DI, Carcinogen: DIETHYLNITROSAMINE, 55-18-5, N-METHYL-N-NITROSOUREA, 684-93-5, N-BUTYLY-N-(4-HYDROXYBUTYL)NITROSAMINE, 3817-11-6, 1,2-DI, 0.3% IN DIET FOR 23 WK BEGINNING 1 WK POST CARCINOGEN TREATMENT (STUDY DURATION: 28 WK), Strain/Sex: F344/MALE, Target Tissue: Type of Lesion: LIVER: CARCINOMA, Dose [Carcinogen]: 100 MG/KG BW DEN ONCE, 20 MG/KG BW MNU ONCE ON DAYS 6,9, AND 12, 0.05% BBN IN DRINKING WATER FOR FIRST TWO WK, 40 MG/KG, Dose [Carcinogen]: 100 MG/KG BW DEN ONCE, 20 MG/KG BW MNU ONCE ON DAYS 6,9, AND 12, 0.05% BBN IN DRINKING WATER FOR FIRST TWO WK, 40 MG/KG) is listed as 0/20 (0%), 2/20 (10%), 100%, not significant and the “tumour outcome (control, treated, inhibition, significance)” value (Carcinogen: DIETHYLNITROSAMINE, 55-18-5, N-METHYL-N-NITRSOUREA, 684-93-5, N-BUTYL-N-(4-HYDROXYBUTYL)NITROSAMINE, 3817-11-6, 1,2-DIME, Carcinogen: DIETHYLNITROSAMINE, 55-18-5, N-METHYL-N-NITRSOUREA, 684-93-5, N-BUTYL-N-(4-HYDROXYBUTYL)NITROSAMINE, 3817-11-6, 1,2-DIME, 0.3% IN DIET FOR 23 WK BEGINNING 1 WK POST CARCINOGEN TREATMENT (STUDY DURATION :28 WK), Strain/Sex: F344/MALE, Target Tissue: Type of Lesion: LARGE INTESTINE: ADENOCARCINOMA, Dose [Carcinogen]: 100 MG/KG BW DEN ONCE, 20 MG/KG BW MNU ONCE ON DAYS 6,9, AND 12, 0.05% BBN IN DRINKING WATER FOR FIRST TWO WK, 40 MG/KG, Dose [Carcinogen]: 100 MG/KG BW DEN ONCE, 20 MG/KG BW MNU ONCE ON DAYS 6,9, AND 12, 0.05% BBN IN DRINKING WATER FOR FIRST TWO WK, 40 MG/KG) is listed as 2/20 (10%), 0/20 (0%), 100%, not significant. For the same compound, the “tumour outcome (control, treated, inhibition, significance)” value (Carcinogen: DIMETHYLNITROSAMINE, 62-75-9, 0.6% IN DIET BEGINNING 2 WK POST CARCINOGEN DOSE AND CONTINUING FOR 26 WK (STUDY DURATION: 120 WK), Strain/Sex: WISTAR/MALE, Target Tissue: Type of Lesion: KIDNEY: ADENOCARCINOMA, Dose [Carcinogen]: 30 MG/KG ONCE) was 12/30 (40%), 24/31 (77%), -93%, p<0.01, the “tumour outcome (control, treated, inhibition, significance)” value (Carcinogen: DIMETHYLNITROSAMINE, 62-75-9, 0.6% IN DIET BEGINNING 2 WK POST CARCINOGEN DOSE AND CONTINUING FOR 26 WK (STUDY DURATION: 120 WK), Strain/Sex: WISTAR/MALE, Target Tissue: Type of Lesion: KIDNEY: ADENOMA, Dose [Carcinogen]: 30 MG/KG ONCE) was 12/30 (40%), 17/31 (55%), -38%, not calculated and the “tumour outcome (control, treated, inhibition, significance)” value (Carcinogen: DIMETHYLNITROSAMINE, 62-75-9, 0.6% IN DIET BEGINNING 2 WK POST CARCINOGEN DOSE AND CONTINUING FOR 26 WK (STUDY DURATION: 120 WK), Strain/Sex: WISTAR/MALE, Target Tissue: Type of Lesion: KIDNEY: EPITHELIAL TUMOR, Dose [Carcinogen]: 30 MG/KG ONCE) was 19/30 (63%), 26/31 (84%), -33%, not calculated. For the same compound, the “tumour outcome (control, treated, inhibition, significance)” value (Carcinogen: DIMETHYLNITROSAMINE, 62-75-9, 0.6% IN DIET BEGINNING 2 WK POST CARCINOGEN DOSE AND CONTINUING FOR 26 WK (STUDY DURATION: 120 WK), Strain/Sex: WISTAR/MALE, Target Tissue: Type of Lesion: KIDNEY: MESENCHYMAL TUMOR, Dose [Carcinogen]: 30 MG/KG ONCE) was 14/30 (47%), 14/31 (45%), 4%, not significant and the “tumour outcome (control, treated, inhibition, significance)” value (Carcinogen: DIMETHYLNITROSAMINE, 62-75-9, 0.6% IN DIET BEGINNING 2 WK POST CARCINOGEN DOSE AND CONTINUING FOR 26 WK (STUDY DURATION: 120 WK), Strain/Sex: WISTAR/MALE, Target Tissue: Type of Lesion: KIDNEY: TUMOR, Dose [Carcinogen]: 30 MG/KG ONCE) was 26/30 (87%), 30/31 (97%), -11%, not significant.
